The values that follow come from ChEMBL document CHEMBL5291721, “A preclinical secondary pharmacology resource illuminates target-adverse drug reaction associations of marketed drugs” (Nat Commun, 2023).

One assay addresses Mu-type opioid receptor (Homo sapiens, UniProt P35372).
The target in assay [1] is T1, D(1A) dopamine receptor (Homo sapiens, UniProt P21728).
For assay [2], the target named is Prostaglandin G/H synthase 1 (Homo sapiens, UniProt P23219). It counts as functional.
Assay [3] addresses T2, Alpha-1A adrenergic receptor (Homo sapiens, UniProt P35348).
T2 sequence (P35348 whole entry): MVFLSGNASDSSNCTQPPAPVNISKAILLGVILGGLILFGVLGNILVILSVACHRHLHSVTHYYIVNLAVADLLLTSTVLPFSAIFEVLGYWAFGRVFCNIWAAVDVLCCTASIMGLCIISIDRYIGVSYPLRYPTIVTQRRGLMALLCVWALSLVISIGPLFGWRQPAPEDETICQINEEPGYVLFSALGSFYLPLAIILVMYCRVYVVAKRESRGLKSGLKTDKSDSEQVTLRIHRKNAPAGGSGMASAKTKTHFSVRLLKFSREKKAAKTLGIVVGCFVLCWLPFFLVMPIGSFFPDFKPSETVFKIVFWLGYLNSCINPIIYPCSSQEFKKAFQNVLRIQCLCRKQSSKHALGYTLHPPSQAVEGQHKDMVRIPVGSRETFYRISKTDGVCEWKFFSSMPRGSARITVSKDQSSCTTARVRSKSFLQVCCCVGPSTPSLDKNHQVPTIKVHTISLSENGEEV
Type of assay: functional, cell-based.

In assay [4] the target is T3, Muscarinic acetylcholine receptor M2 (Homo sapiens, UniProt P08172).
T3 sequence (P08172 whole entry): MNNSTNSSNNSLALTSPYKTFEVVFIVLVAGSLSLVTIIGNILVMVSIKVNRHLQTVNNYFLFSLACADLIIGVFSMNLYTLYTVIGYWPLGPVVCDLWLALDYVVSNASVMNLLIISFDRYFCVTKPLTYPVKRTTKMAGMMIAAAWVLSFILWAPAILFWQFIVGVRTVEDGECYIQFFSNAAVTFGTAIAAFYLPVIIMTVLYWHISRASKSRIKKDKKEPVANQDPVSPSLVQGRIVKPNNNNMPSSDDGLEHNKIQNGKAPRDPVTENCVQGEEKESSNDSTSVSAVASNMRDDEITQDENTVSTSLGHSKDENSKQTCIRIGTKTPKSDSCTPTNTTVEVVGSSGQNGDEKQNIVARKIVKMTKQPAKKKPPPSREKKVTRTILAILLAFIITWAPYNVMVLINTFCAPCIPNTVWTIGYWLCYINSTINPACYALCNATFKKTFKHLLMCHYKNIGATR
It counts as functional, cell-based.

For assay [5], the target named is Delta-type opioid receptor (Homo sapiens, UniProt P41143).
Chain of Delta-type opioid receptor (P41143 whole entry): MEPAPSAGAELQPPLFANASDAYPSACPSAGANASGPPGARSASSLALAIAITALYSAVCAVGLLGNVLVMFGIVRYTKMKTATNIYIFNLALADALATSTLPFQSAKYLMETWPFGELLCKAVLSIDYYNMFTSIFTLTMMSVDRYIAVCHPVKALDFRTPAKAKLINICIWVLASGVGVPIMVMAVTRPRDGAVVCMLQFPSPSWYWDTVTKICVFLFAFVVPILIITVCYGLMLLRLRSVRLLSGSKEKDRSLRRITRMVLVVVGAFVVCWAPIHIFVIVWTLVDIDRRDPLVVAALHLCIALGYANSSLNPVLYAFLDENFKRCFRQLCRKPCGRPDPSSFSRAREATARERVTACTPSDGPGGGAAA
Assay [6] deals with T1, D(1A) dopamine receptor. It counts as functional, cell-based.
Assay [7] deals with Sodium-dependent noradrenaline transporter (Homo sapiens, UniProt P23975).
Chain of Sodium-dependent noradrenaline transporter (P23975 whole entry): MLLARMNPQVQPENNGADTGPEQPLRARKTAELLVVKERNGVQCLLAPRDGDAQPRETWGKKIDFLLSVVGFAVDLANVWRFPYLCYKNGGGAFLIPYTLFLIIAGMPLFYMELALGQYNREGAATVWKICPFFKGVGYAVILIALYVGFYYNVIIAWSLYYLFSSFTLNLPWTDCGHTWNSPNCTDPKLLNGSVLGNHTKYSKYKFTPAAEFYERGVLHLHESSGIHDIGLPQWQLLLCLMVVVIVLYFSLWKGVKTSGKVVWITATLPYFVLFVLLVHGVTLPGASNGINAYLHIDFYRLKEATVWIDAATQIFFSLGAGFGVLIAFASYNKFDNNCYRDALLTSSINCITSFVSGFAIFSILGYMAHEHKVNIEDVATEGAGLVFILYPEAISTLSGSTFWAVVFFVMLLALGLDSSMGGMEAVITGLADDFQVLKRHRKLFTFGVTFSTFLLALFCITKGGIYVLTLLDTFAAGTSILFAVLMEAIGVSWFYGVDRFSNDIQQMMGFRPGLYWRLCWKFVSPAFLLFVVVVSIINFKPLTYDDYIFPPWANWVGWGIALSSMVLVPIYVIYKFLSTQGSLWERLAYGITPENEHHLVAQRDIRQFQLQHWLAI
Assay [8] has as its target T4, Prostaglandin G/H synthase 1 (Rattus norvegicus, UniProt Q63921).
T4 sequence (Q63921 whole entry): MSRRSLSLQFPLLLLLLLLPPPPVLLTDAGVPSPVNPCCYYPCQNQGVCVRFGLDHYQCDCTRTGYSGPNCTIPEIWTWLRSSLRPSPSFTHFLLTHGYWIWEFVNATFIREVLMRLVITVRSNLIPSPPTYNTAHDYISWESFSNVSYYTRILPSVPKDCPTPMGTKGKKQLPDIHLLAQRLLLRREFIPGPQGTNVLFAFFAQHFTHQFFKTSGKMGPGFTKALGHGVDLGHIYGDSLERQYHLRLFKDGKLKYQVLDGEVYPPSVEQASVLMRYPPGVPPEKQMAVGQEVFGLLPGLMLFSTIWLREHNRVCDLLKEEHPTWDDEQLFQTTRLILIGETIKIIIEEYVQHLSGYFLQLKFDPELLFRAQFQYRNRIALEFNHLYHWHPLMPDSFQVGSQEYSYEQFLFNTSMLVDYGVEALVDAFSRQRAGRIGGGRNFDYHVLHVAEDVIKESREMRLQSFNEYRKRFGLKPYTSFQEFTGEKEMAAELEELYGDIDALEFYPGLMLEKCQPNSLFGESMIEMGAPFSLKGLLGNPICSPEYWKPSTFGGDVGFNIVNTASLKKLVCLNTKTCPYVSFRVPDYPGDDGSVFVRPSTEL
Type of assay: functional.

A further assay concerns the target Vasopressin V1a receptor (Homo sapiens, UniProt P37288).
Further: assay procedure not described here.

Chain of Mu-type opioid receptor (P35372 whole entry): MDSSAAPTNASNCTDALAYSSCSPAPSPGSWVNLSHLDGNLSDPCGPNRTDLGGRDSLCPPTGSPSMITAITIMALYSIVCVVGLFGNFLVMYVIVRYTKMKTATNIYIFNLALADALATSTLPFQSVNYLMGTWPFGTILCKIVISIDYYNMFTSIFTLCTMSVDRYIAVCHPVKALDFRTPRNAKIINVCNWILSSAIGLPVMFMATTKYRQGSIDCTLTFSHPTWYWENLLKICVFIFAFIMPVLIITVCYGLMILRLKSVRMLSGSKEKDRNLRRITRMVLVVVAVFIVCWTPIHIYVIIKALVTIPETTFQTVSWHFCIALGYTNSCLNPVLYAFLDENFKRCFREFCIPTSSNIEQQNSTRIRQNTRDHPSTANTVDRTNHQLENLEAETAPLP
T1 sequence (P21728 whole entry): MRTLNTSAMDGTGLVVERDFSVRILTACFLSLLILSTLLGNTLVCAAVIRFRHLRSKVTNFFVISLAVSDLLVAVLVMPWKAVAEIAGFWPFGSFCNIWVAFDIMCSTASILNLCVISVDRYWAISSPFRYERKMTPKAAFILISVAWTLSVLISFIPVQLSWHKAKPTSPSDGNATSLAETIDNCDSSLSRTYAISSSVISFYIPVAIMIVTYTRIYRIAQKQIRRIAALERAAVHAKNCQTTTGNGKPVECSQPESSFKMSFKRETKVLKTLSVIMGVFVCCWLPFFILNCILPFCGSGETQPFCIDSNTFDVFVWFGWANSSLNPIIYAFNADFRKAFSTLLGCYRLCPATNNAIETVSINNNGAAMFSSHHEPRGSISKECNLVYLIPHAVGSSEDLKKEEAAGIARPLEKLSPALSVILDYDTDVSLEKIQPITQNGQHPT
Chain of Prostaglandin G/H synthase 1 (Homo sapiens, UniProt P23219) (P23219 whole entry): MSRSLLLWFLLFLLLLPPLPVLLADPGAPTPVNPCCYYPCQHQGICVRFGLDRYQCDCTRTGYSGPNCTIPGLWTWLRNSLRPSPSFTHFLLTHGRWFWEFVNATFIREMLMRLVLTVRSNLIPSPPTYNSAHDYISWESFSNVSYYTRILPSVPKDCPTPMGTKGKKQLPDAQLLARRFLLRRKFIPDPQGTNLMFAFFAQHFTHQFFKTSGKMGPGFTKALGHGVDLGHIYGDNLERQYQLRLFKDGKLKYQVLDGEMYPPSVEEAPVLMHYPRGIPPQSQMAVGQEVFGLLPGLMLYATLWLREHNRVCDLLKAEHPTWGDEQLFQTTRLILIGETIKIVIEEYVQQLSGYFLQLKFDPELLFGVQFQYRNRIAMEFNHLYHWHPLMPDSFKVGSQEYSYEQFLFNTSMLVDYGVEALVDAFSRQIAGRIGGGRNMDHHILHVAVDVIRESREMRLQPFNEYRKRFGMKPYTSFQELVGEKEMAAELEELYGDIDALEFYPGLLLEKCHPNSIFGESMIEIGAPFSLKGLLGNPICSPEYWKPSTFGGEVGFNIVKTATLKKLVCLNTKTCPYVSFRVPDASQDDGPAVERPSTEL
Chain of Vasopressin V1a receptor (P37288 whole entry): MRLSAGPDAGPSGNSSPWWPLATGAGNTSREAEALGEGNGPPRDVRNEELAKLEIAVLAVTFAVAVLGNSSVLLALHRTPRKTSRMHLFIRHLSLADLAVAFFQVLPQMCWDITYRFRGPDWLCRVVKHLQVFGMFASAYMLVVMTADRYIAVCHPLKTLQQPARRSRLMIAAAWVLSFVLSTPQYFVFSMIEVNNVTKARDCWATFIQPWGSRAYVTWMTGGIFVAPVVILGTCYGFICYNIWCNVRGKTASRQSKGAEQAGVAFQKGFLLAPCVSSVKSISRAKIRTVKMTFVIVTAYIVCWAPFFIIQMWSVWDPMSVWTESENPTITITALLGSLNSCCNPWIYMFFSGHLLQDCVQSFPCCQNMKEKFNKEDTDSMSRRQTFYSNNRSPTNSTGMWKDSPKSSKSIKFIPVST

As usually defined, the AC50 is the concentration giving half of the maximal activity seen. A low value points to greater potency. As to `Cc1cc2c(cc1S(N)(=O)=O)S(=O)(=O)CCC2`, the concentration at half-maximal activity (AC50) (on Mu-type opioid receptor; at D(1A) dopamine receptor [1]; in assay [2]; in [3]) was > 30 µM in each case.

As for `C[C@H](N[C@@H](CCc1ccccc1)C(=O)O)C(=O)N1Cc2ccccc2C[C@H]1C(=O)O`, the AC50 (at Mu-type opioid receptor; on D(1A) dopamine receptor [1]; in [2]; in assay [3]) was > 30 µM in each case.

With `O=C(O)[C@@H]1C[C@@H](O)CN1`, the AC50 at Mu-type opioid receptor is > 10 µM; at D(1A) dopamine receptor [1] it was > 30 µM; in [2], > 30 µM; in [3], > 30 µM.

Turning to `CC1(C)S[C@@H]2[C@H](/N=C/N3CCCCCC3)C(=O)N2[C@H]1C(=O)O` [AMDINOCILLIN], the AC50 was > 30 µM at Mu-type opioid receptor, > 30 µM on D(1A) dopamine receptor [1], 14.5 µM in assay [2] and > 30 µM in [3].

In the case of `CC(=O)[C@]1(N)Cc2c(O)c3c(c(O)c2[C@@H](O[C@H]2C[C@H](O)[C@H](O)CO2)C1)C(=O)c1ccccc1C3=O` [AMRUBICIN], the AC50 is > 30 µM at Mu-type opioid receptor, > 30 µM on D(1A) dopamine receptor [1], 3.62 µM in [2] and 20.1 µM in assay [3].

On to `NC(=O)[C@@H]1CC[C@@H]2CN1C(=O)N2OS(=O)(=O)O` [AVIBACTAM], for which the AC50 (at Mu-type opioid receptor; at D(1A) dopamine receptor [1]; in assay [2]; in assay [3]) was > 30 µM throughout.

For `CC(=O)OC[C@H]1O[C@@H](n2ncc(=O)[nH]c2=O)[C@H](OC(C)=O)[C@@H]1OC(C)=O` [AZARIBINE], the AC50 (at Mu-type opioid receptor; in [2]; in [3]) was > 30 µM each time.

For `CC(C)(C)NC(=O)N[C@H](C(=O)N1C[C@H]2[C@@H]([C@H]1C(=O)NC(CC1CCC1)C(=O)C(N)=O)C2(C)C)C(C)(C)C` (some centres not stated) [BOCEPREVIR], the AC50 (at Mu-type opioid receptor; on D(1A) dopamine receptor [1]; in assay [2]; in [3]) was > 30 µM throughout.

As to `NC[C@H]1CC[C@H](C(=O)Oc2ccc(CCC(=O)O)cc2)CC1` [CETRAXATE], the AC50 (in [4]; at Mu-type opioid receptor; on D(1A) dopamine receptor [1]; in assay [2]; in assay [5]; on D(1A) dopamine receptor [6]) was > 30 µM each time.

On to `C=C1CC[C@H](O)C/C1=C/C=C1\CCC[C@]2(C)[C@@H]([C@H](C)CCCC(C)C)CC[C@@H]12` [CHOLECALCIFEROL], for which the AC50 was > 30 µM on Mu-type opioid receptor, > 30 µM at D(1A) dopamine receptor [1], 22.9 µM in assay [2] and > 30 µM in [3].

In the case of `C[C@H](CCC(=O)O)[C@H]1CC[C@H]2[C@@H]3[C@H](O)C[C@@H]4C[C@H](O)CC[C@]4(C)[C@H]3C[C@H](O)[C@]12C` [CHOLIC ACID], the AC50 (at D(1A) dopamine receptor [1]; in assay [3]) was > 30 µM each time.

`Cc1ncc2c(c1O)COC2c1ccc(Cl)cc1` (configuration not stated) [CICLETANINE]: the AC50 (on Mu-type opioid receptor; on D(1A) dopamine receptor [1]; in assay [2]; in assay [3]) was > 30 µM each time.

Take `Cc1cn([C@H]2O[C@@H](CO)[C@H](O)[C@H]2F)c(=O)[nH]c1=O` [CLEVUDINE]: the AC50 (at Mu-type opioid receptor; on D(1A) dopamine receptor [1]; in assay [2]; in [3]) was > 30 µM in each case.

For the compound `N#Cc1ccc(Oc2ccc3c(c2)COB3O)cc1` [CRISABOROLE], the half-maximal activity concentration (AC50) (on Mu-type opioid receptor; on D(1A) dopamine receptor [1]; in assay [2]; in assay [3]) was > 30 µM throughout.

`CC(=O)[C@H]1CC[C@H]2[C@@H]3C=CC4=CC(=O)CC[C@@]4(C)[C@@H]3CC[C@]12C` [DYDROGESTERONE]: the AC50 (on Mu-type opioid receptor; on D(1A) dopamine receptor [1]; in assay [2]; in [3]) was > 30 µM in each case.

As for `CC(=O)O[C@H]1Cc2ccccc2N(C(N)=O)c2ccccc21` [ESLICARBAZEPINE ACETATE], the AC50 (on Mu-type opioid receptor; at D(1A) dopamine receptor [1]; in assay [2]; in assay [3]) was > 30 µM throughout.

For the compound `CC(O)(P(=O)(O)O)P(=O)(O)O` [ETIDRONIC ACID], the half-maximal activity concentration (AC50) (on Mu-type opioid receptor; on D(1A) dopamine receptor [1]; in assay [2]; in assay [3]) was > 30 µM in each case.

For `Cc1ccc(S(=O)(=O)NC(=O)NC2CCCCC2)cc1` [GLYCYCLAMIDE], the AC50 (on Mu-type opioid receptor; on D(1A) dopamine receptor [1]; in assay [2]; in [3]) was > 30 µM in each case.

With `CN1CCCN(C(c2ccccc2)c2ccc(Cl)cc2)CC1` (configuration not stated) [HOMOCHLORCYCLIZINE], the AC50 at Mu-type opioid receptor is 7.4 µM; on D(1A) dopamine receptor [1], 2.4 µM; in assay [2] it was > 30 µM; in assay [3] it was > 30 µM.

`CC(=O)OCC(=O)[C@@]1(O)CC[C@H]2[C@@H]3CCC4=CC(=O)CC[C@]4(C)[C@H]3[C@@H](O)C[C@@]21C` [HYDROCORTISONE ACETATE]: the AC50 (at Mu-type opioid receptor; at D(1A) dopamine receptor [1]; in assay [2]; in assay [3]) was > 30 µM throughout.

Take `CC(COc1ccccc1)NC(C)C(O)c1ccc(O)cc1` (configuration not stated) [ISOXSUPRINE]: the AC50 at Mu-type opioid receptor was 8.69 µM; on D(1A) dopamine receptor [1], 9.44 µM; in assay [2] it was > 30 µM; in [3], > 30 µM.

For the compound `O=C(CCC/C=C\C[C@@H]1[C@@H](CC[C@@H](O)CCc2ccccc2)[C@H](O)C[C@@H]1O)OCCCCO[N+](=O)[O-]` [LATANOPROSTENE BUNOD], the AC50 (at Mu-type opioid receptor; at D(1A) dopamine receptor [1]; in assay [2]; in [3]) was > 30 µM throughout.

In the case of `Cc1oc(=O)oc1COC(=O)[C@@H]1N2C(=O)[C@@H](NC(=O)[C@H](N)c3ccccc3)[C@H]2SC1(C)C` [LENAMPICILLIN], the half-maximal activity concentration (AC50) (at Mu-type opioid receptor; on D(1A) dopamine receptor [1]; in assay [2]; in assay [3]) was > 30 µM throughout.

Regarding `COc1ccc(OC)c(C(O)C(C)N)c1` (configuration not stated) [METHOXAMINE], the AC50 at Mu-type opioid receptor is > 30 µM; on D(1A) dopamine receptor [1] it was > 30 µM; in assay [2], > 30 µM; in [3], 0.021 µM.

`CC1(CCN2CCCCC2)C(=O)CCc2ccccc21` (configuration not stated) [NEPINALONE]: the AC50 (on Mu-type opioid receptor; at D(1A) dopamine receptor [1]; in [2]; in assay [3]) was > 30 µM each time.

On to `COC(=O)C[C@](O)(CCCC(C)(C)O)C(=O)O[C@@H]1C(OC)=C[C@]23CCCN2CCc2cc4c(cc2[C@H]13)OCO4` [OMACETAXINE MEPESUCCINATE], for which the half-maximal activity concentration (AC50) is > 30 µM on Mu-type opioid receptor, > 30 µM on D(1A) dopamine receptor [1], > 10 µM in assay [2] and > 30 µM in assay [3].

`O=C1OC(OC(=O)c2cccnc2Nc2cccc(C(F)(F)F)c2)c2ccccc21` (configuration not stated) [TALNIFLUMATE]: the AC50 (in assay [7]; in [4]; in assay [8]; at Vasopressin V1a receptor; in assay [5]; at D(1A) dopamine receptor [6]) was > 30 µM throughout.

In the case of `COc1ccc2c(C(=S)N(C)CC(=O)O)cccc2c1C(F)(F)F` [TOLRESTAT], the concentration at half-maximal activity (AC50) (on Mu-type opioid receptor; on D(1A) dopamine receptor [1]; in [2]) was > 30 µM throughout.
